≈ marks a conversion by molar mass, not a printed value. Where two headings read alike, the source gives them in different places.

One data set deals with male ddy mice. The format is in vivo. Particulars: 500 mg/kg intraperitoneally. On the procedure:
An aqueous solution of the antibiotic PS-5 sodium salt was intraperitoneally administered to male ddy mice (Shizuoka) at the dose of 500 mg/kg.

Data set [1] deals with Bacillus subtilis ATCC 6633. Put plainly: MIC by broth dilution (Table 8). Particulars: ATCC6633, 20 h, read-out: Minimum inhibitory concentration. The format is cell-based. On the procedure: (§1) The MIC values of antibiotic PS-5 sodium salt were determined on various pathogenic microorganisms including resistant strains by the broth dilution method utilizing the BRAIN HEART INFUSION BROTH `Eiken` (EIKEN CHEMICAL CO., LTD.).
(§2) The antibiotic PS-5 sodium salt was dissolved in BRAIN HEART INFUSION BROTH `Eiken` (EIKEN CHEMICAL CO., LTD.) (pH 7.0) at concentration in the range of 5-50 μg/ml, from which appropriate dilution series were made in the same liquid medium. The microorganisms listed in Table 8 were cultivated for 18 hours in BRAIN HEART INFUSION BROTH `Eiken` at 28° C. and inoculated into the said dilution series of antibiotic PS-5 at a final inoculum size of 1×10^5 cells/ml. The cultures were allowed to stand at 35° C. for 20 hours, and then the growth of the microorganisms was read at each dilution of antibiotic PS-5. The minimum inhibitory concentration (MIC) represents the smallest concentration of the antibiotic PS-5 (sodium salt) where no propagation of the relevant microorganism was visually confirmed. As the controls, two known beta-lactam antibiotics, cephaloridine and cefoxitin were dissolved in brain heart infustion broth at pH 7.0 at concentrations ranging from 1 μg/ml to 100 μ g/ml and then diluted to make several dilution series in the above mentioned liquid medium. These samples were treated as described above for the MIC determinations.

The subject of data set [2] is Staphylococcus aureus Smith. The data set can be described thus: MIC by broth dilution (Table 8). Particulars: 20 h, read-out: Minimum inhibitory concentration. The format is cell-based. How it is done: as §1, §2
For orientation: Broth dilution looks for growth in wells or tubes with falling amounts of substance.

The test system of data set [3] is Streptococcus pyogenes NY-5. The data set can be described thus: MIC by broth dilution (Table 8). The format is cell-based. Particulars: NY5, 20 h, read-out: Minimum inhibitory concentration. How it is done:
as §1, §2

In data set [4] the test system is Diplococcus pneumoniae Type III. The data set can be described thus: MIC by broth dilution (Table 8). The format is cell-based. Particulars: Streptococcus pneumoniae, 20 h, read-out: Minimum inhibitory concentration. On the procedure: as §1, §2
Data set [5] has as its system Staphylococcus aureus Bx-1633. The data set can be described thus: MIC by broth dilution (Table 8). Particulars: BX1633, 20 h, read-out: Minimum inhibitory concentration. The format is cell-based. How it is done:
as §1, §2

The subject of data set [6] is Staphylococcus aureus EDA 209 P. The data set can be described thus: MIC by broth dilution (Table 8). Particulars: EDA209P, 20 h, read-out: Minimum inhibitory concentration. The format is cell-based. On the procedure:
as §1, §2

Data set [7] concerns Alcaligenes faecalis B-326. The data set can be described thus: MIC by broth dilution (Table 13). The format is cell-based. Particulars: B326, 20 h. How it is done:
(§3) The MIC (minimum inhibitory concentration) values of the compound were determined on various pathogenic microorganisms including several resistant strains, utilizing the broth dilution method in BRAIN HEART INFUSION BROTH `Eiken` (EIKEN CHEMICAL CO., LTD.).
(§4) The results were read after incubation at 35° C. for 20 hours. The minimum inhibitory concentration (MIC) values means the lowest concentration unit of the tritylation product of the antibiotic PS-5 was no growth of the corresponding microorganism was observed under the above described conditions. As the control antibiotics,the solutions of ampicillin and cephaloridine were prepared in BRAIN HEART INFUSION BROTH `Eiken` (pH 7.0) at a concentration of 100 μg/ml and treated same as the test compound of the present invention.

For another data set, the system named is Proteus rettgeri P-7. The data set can be described thus: MIC by broth dilution (Table 13). The format is cell-based. Particulars: Providencia rettgeri, P7, 20 h. How it is done: as §3, §4
The test system of data set [8] is Klebsiella pneumoniae K-2. The data set can be described thus: MIC by broth dilution (Table 13). The format is cell-based. Particulars: K2, 20 h. On the procedure:
as §3, §4

The subject of a further data set is Enterobacter sp. E-8. Put plainly: MIC by broth dilution (Table 13). The format is cell-based. Particulars: SP.E8, 20 h. On the procedure:
as §3, §4

A further data set has as its system Proteus mirabilis P-6. Put plainly: MIC by broth dilution (Table 13). The format is cell-based. Particulars: P6, 20 h. How it is done: as §3, §4
The test system of data set [9] is Staphylococcus aureus Smith. The data set can be described thus: MIC by broth dilution (Table 13). Particulars: 20 h. The format is cell-based. On the procedure:
as §3, §4

Data set [10] deals with Streptococcus pyogenes NY-5. The data set can be described thus: MIC by broth dilution (Table 13). The format is cell-based. Particulars: NY5, 20 h. On the procedure:
as §3, §4

Data set [11] deals with Diplococcus pneumoniae Type III. Put plainly: MIC by broth dilution (Table 13). The format is cell-based. Particulars: Streptococcus pneumoniae, 20 h. How it is done: as §3, §4
The subject of a further data set is Escherichia coli K12. The data set can be described thus: MIC by broth dilution (Table 13). The format is cell-based. Particulars: 20 h. On the procedure: as §3, §4
In another data set the test system is Sarcina lutea S-19. The data set can be described thus: MIC by broth dilution (Table 13). The format is cell-based. Particulars: Micrococcus luteus, S19, 20 h. On the procedure: as §3, §4
In a further data set the test system is Proteus vulgaris P-5. Put plainly: MIC by broth dilution (Table 13). The format is cell-based. Particulars: P5, 20 h. How it is done:
as §3, §4

A further data set has as its system Citrobacter freundii E-9. The data set can be described thus: MIC by broth dilution (Table 13). The format is cell-based. Particulars: E9, 20 h. On the procedure:
as §3, §4

Data set [12] concerns Staphylococcus aureus FDA 209p. The data set can be described thus: MIC by broth dilution (Table 13). The format is cell-based. Particulars: FDA209P, 20 h. On the procedure: as §3, §4
The test system of data set [13] is Pseudomonas aeruginosa P-1. The data set can be described thus: MIC by broth dilution (Table 13). The format is cell-based. Particulars: P1, 20 h. How it is done: as §3, §4

`CCC1C(=O)N2C(C(=O)O)=C(SCCNC(C)=O)CC12` (single isomer, unassigned) [Antibiotic PS-5]: the “Deaths after intraperitoneal administration” value in the data set with male ddy mice was “does not provoke any dead”. The MIC in data set [1] (Bacillus subtilis ATCC 6633) came to 0.16 mg/L (≈ 0.536 µM); in data set [2] (Staphylococcus aureus Smith, PS-5 as sodium salt), 0.31 mg/L; in [3] (Streptococcus pyogenes NY-5, 10% horse blood supplemented into the medium), 0.08 mg/L (≈ 0.268 µM); in data set [4] (Diplococcus pneumoniae Type III, 10% horse blood supplemented into the medium), 0.02 mg/L (≈ 0.067 µM); in data set [5] (Staphylococcus aureus Bx-1633, PS-5 as sodium salt), 0.16 mg/L; in [6] (Staphylococcus aureus EDA 209 P, PS-5 as sodium salt), 0.16 mg/L.
As for `CCC1C(=O)N2C(C(=O)OC(c3ccccc3)(c3ccccc3)c3ccccc3)=C(SCCNC(C)=O)CC12` (single isomer, unassigned) [Trityl PS-5], the “Deaths after intraperitoneal administration” value is “did not provoke any dead” in the data set on male ddy mice (listed as trityl ester of the antibiotic PS-5, 500 mg/kg) and “does not provoke any dead” with male ddy mice (listed as trityl ester, 500 mg/kg). For the same compound, the MIC worked out at 1.25 mg/L (≈ 2.31 µM) in data set [7] (Alcaligenes faecalis B-326, read-out: MIC); 10 mg/L (≈ 18.5 µM) with Proteus rettgeri P-7 (Proteus rettgeri P-7, read-out: MIC); 10.7 mg/L (≈ 19.8 µM) in data set [8] (Klebsiella pneumoniae K-2, read-out: MIC); 10 mg/L (≈ 18.5 µM) in the data set with Enterobacter sp. E-8 (Enterobacter sp. E-8, read-out: MIC); 21.5 mg/L (≈ 39.8 µM) in the data set on Proteus mirabilis P-6 (Proteus mirabilis P-6, read-out: MIC); 0.27 mg/L (≈ 0.499 µM) in data set [9] (Staphylococcus aureus Smith, read-out: MIC). Besides, the MIC was 0.17 mg/L (≈ 0.314 µM) in [10] (Streptococcus pyogenes NY-5, read-out: MIC); 0.08 mg/L (≈ 0.148 µM) in [11] (Diplococcus pneumoniae Type III, read-out: MIC); 5.37 mg/L (≈ 9.93 µM) in the data set on Escherichia coli K12; 0.27 mg/L (≈ 0.499 µM) with Sarcina lutea S-19 (Sarcina lutea S-19, read-out: MIC); 21.5 mg/L (≈ 39.8 µM) with Proteus vulgaris P-5 (Proteus vulgaris P-5, read-out: MIC); 5 mg/L (≈ 9.25 µM) in the data set with Citrobacter freundii E-9 (Citrobacter freundii E-9, read-out: MIC). For the same compound, the MIC in data set [12] (Staphylococcus aureus FDA 209p, read-out: MIC) was 0.17 mg/L (≈ 0.314 µM); in [13] (Pseudomonas aeruginosa P-1, read-out: MIC), above 43 mg/L.
Regarding `O=C(Cc1cccs1)N[C@@H]1C(=O)N2C(C(=O)[O-])=C(C[n+]3ccccc3)CS[C@H]12` [Cephaloridine, cephaloridine], the MIC was 0.031 mg/L (≈ 0.0746 µM) in [1] (Bacillus subtilis); 0.031 mg/L (≈ 0.0746 µM) in [2] (Staphylococcus aureus); 0.008 mg/L (≈ 0.0193 µM) in data set [3] (Streptococcus pyogenes); 0.031 mg/L (≈ 0.0746 µM) in [4]; 0.031 mg/L (≈ 0.0746 µM) in data set [5] (Staphylococcus aureus); 0.031 mg/L (≈ 0.0746 µM) in data set [6] (Staphylococcus aureus). For the same compound, the MIC in data set [7] (Alcaligenes faecalis) is 6.25 mg/L (≈ 15 µM); against Proteus rettgeri P-7, 50 mg/L (≈ 120 µM); in [8] (Klebsiella pneumoniae), 10 mg/L (≈ 24.1 µM); in the data set with Enterobacter sp. E-8 (Enterobacter), above 100 mg/L; with Proteus mirabilis P-6 (Proteus mirabilis), 10 mg/L (≈ 24.1 µM); in [9] (Staphylococcus aureus), 0.04 mg/L (≈ 0.0963 µM). Also, the MIC in [10] (Streptococcus pyogenes) was 0.01 mg/L (≈ 0.0241 µM); in data set [11], 0.01 mg/L (≈ 0.0241 µM); in the data set with Escherichia coli K12 it was 2.5 mg/L (≈ 6.02 µM); with Sarcina lutea S-19, 0.05 mg/L (≈ 0.12 µM); with Proteus vulgaris P-5 (Proteus vulgaris), above 20 mg/L; in the data set on Citrobacter freundii E-9 (Citrobacter freundii) it was above 100 mg/L. Further, the MIC in data set [12] (Staphylococcus aureus) was 0.04 mg/L (≈ 0.0963 µM); in [13] (Pseudomonas aeruginosa), above 20 mg/L.

(Values after US4318916A, “Antibiotic PS-5 and derivatives having β-lactamase inhibitory activity and production thereof” (Sanraku-Ocean Co., Ltd., priority 1977, dated 1982).)
